{"source": "patent US5137892A", "about": "“Quinoline, naphthyridine and pyridobenzoxazine derivatives” (Abbott Laboratories, priority 1990, dated 1992)", "key": {"[1]": {"system": "Escherichia coli H560", "assay": "In Vitro Antibacterial Activity, agar dilution MIC", "assay_type": "cell-based", "conditions": "E. coli H560; BHI agar dilution, 20-24 hours; unit assumed", "description": "(§1) The activity of the compounds of the present invention was tested against a wide variety of bacteria using standard assay procedures. Minimum inhibitory concentrations (MICs) were determined by the agar dilution method, described below, using Brain Heart Infusion agar.\n(§2) Twelve petri dishes were prepared, each containing successive aqueous 2-fold dilutions of the test compounds mixed with 10 mL of sterilized Brain Heart Infusion (BHI) agar. Each plate was inoculated with 100-fold (or 10-fold, for slow-growing strains such as Micrococcus and Streptococcus) dilutions of up to 32 different microorganisms using a Steers replicator block calibrated to deliver approximately 10^4 colony forming units (CFUs). The inoculated plates were incubated at about 35°-37° C. for approximately 20-24 hours. In addition, a control plate, using BHI agar containing no test compound, was prepared and incubated at the beginning and at the end of each test. Ciprofloxacin was used as the reference antibiotic.\n(§3) The MIC was defined as the lowest concentration of test compound yielding no growth (a slight haze or sparsely isolated colonies at the inoculum spot as compared to the growth control contaning no test compound."}, "[2]": {"system": "Streptococcus pyogenes 2548 INDUC", "assay": "In Vitro Antibacterial Activity, agar dilution MIC", "assay_type": "cell-based", "conditions": "S. pyogenes 2548 INDUC; BHI agar dilution, 20-24 hours; unit assumed", "description": "as §1, §2, §3"}, "[3]": {"system": "Streptococcus agalactaciae CMX 508", "assay": "In Vitro Antibacterial Activity, agar dilution MIC", "assay_type": "cell-based", "conditions": "S. agalactaciae CMX 508; BHI agar dilution, 20-24 hours; unit assumed", "description": "as §1, §2, §3"}, "[4]": {"system": "Streptococcus pyogenes 930 CONST", "assay": "In Vitro Antibacterial Activity, agar dilution MIC", "assay_type": "cell-based", "conditions": "S. pyogenes 930 CONST; BHI agar dilution, 20-24 hours; unit assumed", "description": "as §1, §2, §3"}, "[5]": {"system": "Micrococcus luteus ATCC 9341", "assay": "In Vitro Antibacterial Activity, agar dilution MIC", "assay_type": "cell-based", "conditions": "M. luteus ATCC 9341; BHI agar dilution, 20-24 hours; unit assumed", "description": "as §1, §2, §3"}, "[6]": {"system": "Klebsiella pneumoniae ATCC 8045", "assay": "In Vitro Antibacterial Activity, agar dilution MIC", "assay_type": "cell-based", "conditions": "K. pneumoniae ATCC 8045; BHI agar dilution, 20-24 hours; unit assumed", "description": "as §1, §2, §3"}, "[7]": {"system": "Enterococcus faecium ATCC 8043", "assay": "In Vitro Antibacterial Activity, agar dilution MIC", "assay_type": "cell-based", "conditions": "E. faecium ATCC 8043; BHI agar dilution, 20-24 hours; unit assumed", "description": "as §1, §2, §3"}, "[8]": {"system": "Staphylococcus aureus 45", "assay": "In Vitro Antibacterial Activity, agar dilution MIC", "assay_type": "cell-based", "conditions": "S. aureus 45; BHI agar dilution, 20-24 hours; unit assumed", "description": "as §1, §2, §3"}, "[9]": {"system": "Providencia stuartii CMX 640", "assay": "In Vitro Antibacterial Activity, agar dilution MIC", "assay_type": "cell-based", "conditions": "P. stuartii CMX 640; BHI agar dilution, 20-24 hours; unit assumed", "description": "as §1, §2, §3"}, "[10]": {"system": "Staphylococcus aureus NCTC 10649", "assay": "In Vitro Antibacterial Activity, agar dilution MIC", "assay_type": "cell-based", "conditions": "S. aureus NCTC 10649; BHI agar dilution, 20-24 hours; unit assumed", "description": "as §1, §2, §3"}, "[11]": {"system": "Pseudomonas cepacia 2961", "assay": "In Vitro Antibacterial Activity, agar dilution MIC", "assay_type": "cell-based", "conditions": "P. cepacia 2961; BHI agar dilution, 20-24 hours; unit assumed", "description": "as §1, §2, §3"}, "[12]": {"system": "Pseudomonas aeruginosa A5007", "assay": "In Vitro Antibacterial Activity, agar dilution MIC", "assay_type": "cell-based", "conditions": "P. aeruginosa A5007; BHI agar dilution, 20-24 hours; unit assumed", "description": "as §1, §2, §3"}, "[13]": {"system": "Escherichia coli JUHL", "assay": "In Vitro Antibacterial Activity, agar dilution MIC", "assay_type": "cell-based", "conditions": "E. coli JUHL; BHI agar dilution, 20-24 hours; unit assumed", "description": "as §1, §2, §3"}, "[14]": {"system": "Staphylococcus aureus A5177", "assay": "In Vitro Antibacterial Activity, agar dilution MIC", "assay_type": "cell-based", "conditions": "S. aureus A5177; BHI agar dilution, 20-24 hours; unit assumed", "description": "as §1, §2, §3"}, "[15]": {"system": "Staphylococcus aureus CMX 553", "assay": "In Vitro Antibacterial Activity, agar dilution MIC", "assay_type": "cell-based", "conditions": "S. aureus CMX 553; BHI agar dilution, 20-24 hours; unit assumed", "description": "as §1, §2, §3"}, "[16]": {"system": "Escherichia coli SS", "assay": "In Vitro Antibacterial Activity, agar dilution MIC", "assay_type": "cell-based", "conditions": "E. coli SS; BHI agar dilution, 20-24 hours; unit assumed", "description": "as §1, §2, §3"}, "[17]": {"system": "Enterobacter aerogenes ATCC 13048", "assay": "In Vitro Antibacterial Activity, agar dilution MIC", "assay_type": "cell-based", "conditions": "E. aerogenes ATCC 13048; BHI agar dilution, 20-24 hours; unit assumed", "description": "as §1, §2, §3"}, "[18]": {"system": "Staphylococcus aureus 642A", "assay": "In Vitro Antibacterial Activity, agar dilution MIC", "assay_type": "cell-based", "conditions": "S. aureus 642A; BHI agar dilution, 20-24 hours; unit assumed", "description": "as §1, §2, §3"}, "[19]": {"system": "Pseudomonas aeruginosa BMH10", "assay": "In Vitro Antibacterial Activity, agar dilution MIC", "assay_type": "cell-based", "conditions": "P. aeruginosa BMH10; BHI agar dilution, 20-24 hours; unit assumed", "description": "as §1, §2, §3"}, "[20]": {"system": "Escherichia coli KNK 437", "assay": "In Vitro Antibacterial Activity, agar dilution MIC", "assay_type": "cell-based", "conditions": "E. coli KNK 437; BHI agar dilution, 20-24 hours; unit assumed", "description": "as §1, §2, §3"}, "[21]": {"system": "Staphylococcus aureus NCTC 10649", "assay": "In Vivo Antibacterial Activity, protection of CF-1 female mice from bacterial challenge", "design": "species or system CF-1 female mice infected with Staphylococcus aureus", "conditions": "100 times the LD50 i.p., dosed at 1 and 5 hr after infection, mortality on sixth day", "description": "The in vivo antibacterial activity of one of the compounds of the present invention was determined by studying the protection of CF-1 female mice from bacterial challenge. The test compound was 7-(2-dimethylaminomethyl-1,4-dioxa-7-azaspiro[4.4]non-7-yl)-6-fluoro-1-(2,4-difluorophenyl)-1,8-naphthyridine-3-carboxylic acid (prepared in Example 445). Aqueous solutions of the compound were made by dissolving it in dilute NaOH and diluting with distilled water to the desired volume.\nThe median lethal dose of the test organism was then determined as follows: After 18 hours incubation, a culture of Staphylococcus aureus NCTC 10649 was serially diluted by using 10-fold dilutions in 5% (w/v) hog gastric mucin. 0.5 mL samples, of dilution from 10^-1 to 10^-8, were injected intraperitoneally into mice. The LD50 for the test organism was calculated from the cumulative mortalities on the sixth day by the using the Reed and Muench procedure (Reed, L. J., and H. Muench, Amer. J. Hygiene, 27, 493 (1938)).\nThe 18 hour culture of the test organism was then diluted in 5% (w/v) hog gastric mucin to obtain 100 times the LD50, and 0.5 mL was injected intraperitoneally into mice. The mice were treated subcutaneously or orally with a specific amount of the test compound divided equally to be administered at 1 and 5 hr after infection. […]"}}, "note": "Read-outs that look alike come from different tables or passages of the source.", "data": [{"smiles": "CN(C)CC1COC2(CCN(c3nc4c(cc3F)c(=O)c(C(=O)O)cn4-c3ccc(F)cc3F)C2)O1", "note": "(stereo not shown) [Example 445]", "values": [{"measurement": "MIC values", "setting": "[1]", "value": 1.56, "unit": "µg/mL"}, {"measurement": "MIC values", "setting": "[2]", "value": 0.2, "unit": "µg/mL"}, {"measurement": "MIC values", "setting": "[3]", "value": 1.58, "unit": "µg/mL"}, {"measurement": "MIC values", "setting": "[4]", "value": 0.78, "unit": "µg/mL"}, {"measurement": "MIC values", "setting": "[5]", "value": 12.5, "unit": "µg/mL"}, {"measurement": "MIC values", "setting": "[6]", "value": 1.56, "unit": "µg/mL"}, {"measurement": "MIC values", "setting": "[7]", "value": 1.56, "unit": "µg/mL"}, {"measurement": "MIC values", "setting": "[8]", "value": 0.39, "unit": "µg/mL"}, {"measurement": "MIC values", "setting": "[9]", "value": "> 100", "unit": "µg/mL"}, {"measurement": "MIC values", "setting": "[10]", "value": 0.2, "unit": "µg/mL"}, {"measurement": "MIC values", "setting": "[11]", "value": 50, "unit": "µg/mL"}, {"measurement": "MIC values", "setting": "[12]", "value": 12.5, "unit": "µg/mL"}, {"measurement": "MIC values", "setting": "[13]", "value": 1.56, "unit": "µg/mL"}, {"measurement": "MIC values", "setting": "[14]", "value": 0.39, "unit": "µg/mL"}, {"measurement": "MIC values", "setting": "[15]", "value": 0.39, "unit": "µg/mL"}, {"measurement": "MIC values", "setting": "[16]", "value": 0.2, "unit": "µg/mL"}, {"measurement": "MIC values", "setting": "[17]", "value": 3.1, "unit": "µg/mL"}, {"measurement": "MIC values", "setting": "[18]", "value": 0.39, "unit": "µg/mL"}, {"measurement": "MIC values", "setting": "[19]", "value": 12.5, "unit": "µg/mL"}, {"measurement": "MIC values", "setting": "[20]", "value": 12.5, "unit": "µg/mL"}, {"measurement": "ED50", "setting": "[21]; NCTC10649, 144 h, oral, read-out: oral ED50", "value": 6, "unit": "mg/kg"}, {"measurement": "ED50", "setting": "[21]; NCTC10649, sc, 144 h, subcutaneous, read-out: subcutaneous ED50", "value": 5, "unit": "mg/kg"}]}]}
